Patent publication US20060004197A1, “Sulfonamide-based compounds as protein tyrosine kinase inhibitors” (priority 2004, published 2006)

The compounds below were run against T1, Recombinant human Src (Homo sapiens, UniProt P12931) (assay: Src tyrosine kinase activity, poly E4Y / 32P-ATP phosphorylation assay). Details: Table 2; compound at 15 ug/mL; read-out: % Inhibition at 15 ug/mL Src (%).
T1 construct: made in house; host or cells: baculovirus-insect cell system
Format: biochemical
Method: Recombinant human Src was expressed using the baculovirus-insect cell system and purified as published (Budde et al., 1993 and 2000).
The tyrosine kinase activity of Src, Csk and FGFr was determined using poly E4Y and ^32P-ATP. Briefly, enzymes were assayed in a reaction mixture consisting of 0.15 M EPPS-NaOH (pH 8.0) with 6 mM MgCl2, 0.2 mM γ^32P-ATP (0.2-0.4 mCi/μmol), 10% glycerol, 0.1% Triton X-100, and poly E4Y. Poly E4Y is a synthetic peptide whose phosphorylation is measured in this assay by the addition of the radioactively labeled phosphate from the ATP (Budde et al., 1995). […] When ATP was varied (0, 50, 100 and 250 μM), poly E4Y was kept constant at 150 μg/ml.

T1 sequence (P12931 whole entry): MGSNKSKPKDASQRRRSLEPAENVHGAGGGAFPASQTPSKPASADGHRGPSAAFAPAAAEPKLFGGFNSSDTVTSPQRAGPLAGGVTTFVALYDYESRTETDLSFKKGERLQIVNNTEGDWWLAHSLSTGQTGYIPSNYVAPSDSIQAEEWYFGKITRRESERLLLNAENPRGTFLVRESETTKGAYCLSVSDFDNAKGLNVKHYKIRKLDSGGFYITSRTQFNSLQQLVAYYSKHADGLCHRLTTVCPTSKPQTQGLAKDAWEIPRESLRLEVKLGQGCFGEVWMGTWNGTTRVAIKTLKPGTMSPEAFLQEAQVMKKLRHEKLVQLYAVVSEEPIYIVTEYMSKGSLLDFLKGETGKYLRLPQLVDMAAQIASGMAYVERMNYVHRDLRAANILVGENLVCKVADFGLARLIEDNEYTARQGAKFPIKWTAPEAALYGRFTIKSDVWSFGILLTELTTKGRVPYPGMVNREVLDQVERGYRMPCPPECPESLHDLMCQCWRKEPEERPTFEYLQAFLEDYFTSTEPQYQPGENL

Question: How did the inhibition at 15 µg/mL turn out when `Cc1ccc(S(=O)(=O)Nc2cc(NCC3(O)CCCCC3)c([N+](=O)[O-])cc2NS(=O)(=O)c2ccc(C)cc2)cc1` [Compound 9i, N-[4-(1-hydroxy-cyclohexylmethyl-amino)-5-nitro-2-(4-toluenesulfonylamino)-phenyl]-4-toluenesulfonamide] was run?
Answer: 18%

Question: For `Cc1ccc(S(=O)(=O)Nc2cc(NCCCc3cn[nH]c3C)c([N+](=O)[O-])cc2NS(=O)(=O)c2ccc(C)cc2)cc1` [Compound 9k, N-[4-[3-(5-methyl-1H-pyrazol-4-yl)-propylamino]-5-nitro-2-(4-toluenesulfonylamino)-phenyl]-4-toluenesulfonamide], which inhibition at 15 µg/mL is on record?
Answer: 13%

Same assay, conditions: Table 3, Formula II compounds; NI = no inhibition at 100 μg/mL

Question: How did the IC50 turn out when `COc1ccc(Oc2ccc(NS(=O)(=O)c3cccc(OC)c3)c(NS(=O)(=O)c3ccc(C)cc3)c2)cc1` [Compound 22aa, 3-methoxy-N-[4-(4-methoxy-phenoxy)-2-(4-toluenesulfonylamino)-phenyl]-benzenesulfonamide] was run?
Answer: 133 µM

Question: Which IC50 does the source give for `Cc1ccc(S(=O)(=O)Nc2ccc(NS(=O)(=O)c3c(C)noc3C)cc2NS(=O)(=O)c2ccc(C)cc2)cc1` [Compound 22j, 3,5-dimethyl-N-[3,4-bis-(4-toluenesulfonylamino)-phenyl]-isoxazole-4-sulfonamide] here?
Answer: 25 µM

Question: How did the IC50 turn out when `COc1ccc(Oc2ccc(NS(=O)(=O)c3c(C)noc3C)c(NS(=O)(=O)c3ccc(C)cc3)c2)cc1` [Compound 22r, 3,5-dimethyl-N-[4-(4-methoxy-phenoxy)-2-(4-toluenesulfonylamino)-phenyl]-isoxazole-4-sulfonamide] was run?
Answer: 335 µM

Question: How did the IC50 turn out when `COc1ccc(Oc2ccc(NS(=O)(=O)c3ccc(Cl)c4nonc34)c(NS(=O)(=O)c3ccc(C)cc3)c2)cc1` [Compound 22u, 7-chloro-N-[4-(4-methoxy-phenoxy)-2-(4-toluenesulfonylamino)-phenyl]-benzo[1,2,5]oxadiazole-4-sulfonamide] was run?
Answer: 20 µM

Question: How did the IC50 turn out when `COc1ccc(Oc2ccc(NS(=O)(=O)c3cnc(Cl)c(Br)c3)c(NS(=O)(=O)c3ccc(C)cc3)c2)cc1` [Compound 22t, 5-bromo-6-chloro-N-[4-(4-methoxy-phenoxy)-2-(4-toluenesulfonylamino)-phenyl]-pyridine-3-sulfonamide] was run?
Answer: 44 µM

Question: How did the IC50 turn out when `C=CCc1c(OCc2ccc(OC)cc2)ccc(NS(=O)(=O)c2ccc(C)cc2)c1NS(=O)(=O)c1ccc(C)cc1` [Compound 15a, N-[3-allyl-4-(4-methoxy-benzyloxy)-2-(4-toluenesulfonylamino)-phenyl]-4-toluenesulfonamide] was run?
Answer: 212 µM

Question: `Cc1ccc(S(=O)(=O)Nc2ccc(C(=NOCc3ccccc3)c3ccccc3)cc2NS(=O)(=O)c2ccc(C)cc2)cc1` [Compound 22ii, N-[4-(benzyloxyimino-phenyl-methyl)-2-(4-toluenesulfonylamino)-phenyl]-4-toluenesulfonamide] was tested. Which IC50 did it give?
Answer: 64 µM

Question: For `COc1ccc(Oc2ccc(NS(=O)(=O)c3sc(NC(C)=O)nc3C)c(NS(=O)(=O)c3ccc(C)cc3)c2)cc1` [Compound 22q, N-{5-[4-(4-methoxy-phenoxy)-2-(4-toluenesulfonylamino)-phenylsulfamoyl]-4-methyl-thiazol-2-yl}-acetamide], which IC50 is on record?
Answer: 154 µM

Same assay, conditions: Table 3; compound at 15 μg/mL; read-out: % Inhibition at 15 μg/mL Src (%)

Question: How did the inhibition at 15 µg/mL turn out when `Cc1ccc(S(=O)(=O)Nc2ccc(SCc3ccccc3Cl)cc2NS(C)(=O)=O)cc1` [Compound 22nn, N-[4-(2-chloro-benzylsulfanyl)-2-methanesulfonylamino-phenyl]-4-toluenesulfonamide] was run?
Answer: 21%

Question: For `Cc1ccc(S(=O)(=O)Nc2ccc(C(=NO)c3ccccc3)cc2NS(=O)(=O)c2ccc(C)cc2)cc1` [Compound 22jj, N-[4-(hydroxyimino-phenyl-methyl)-2-(4-toluenesulfonylamino)-phenyl]-4-toluenesulfonamide], which inhibition at 15 µg/mL is on record?
Answer: 16%

Question: With `CON=C(c1ccccc1)c1ccc(NS(=O)(=O)c2ccc(C)cc2)c(NS(=O)(=O)c2ccc(C)cc2)c1` [Compound 22kk, N-[4-(methoxyimino-phenyl-methyl)-2-(4-toluenesulfonylamino)-phenyl]-4-toluenesulfonamide] as the compound, how does the inhibition at 15 µg/mL read?
Answer: 23%

Question: `COc1ccc(Oc2ccc(NS(C)(=O)=O)c(NS(=O)(=O)c3ccc(C)cc3)c2)cc1` [Compound 22p, N-[2-methanesulfonylamino-5-(4-methoxy-phenoxy)-phenyl]-4-toluenesulfonamide] was tested. Which inhibition at 15 µg/mL did it give?
Answer: 17%

Question: How did the inhibition at 15 µg/mL turn out when `Cc1ccc(S(=O)(=O)Nc2cc(SCc3ccccc3Cl)ccc2NS(C)(=O)=O)cc1` [Compound 22ll, N-[5-(2-chloro-benzylsulfanyl)-2-methanesulfonylamino-phenyl]-4-toluenesulfonamide] was run?
Answer: 17%

Question: For `C=CCOc1ccc(NS(=O)(=O)c2ccc(C)cc2)c(NS(=O)(=O)c2ccc(C)cc2)c1` [Compound 12cc, N-[4-allyloxy-2-(4-toluenesulfonylamino)-phenyl]-4-toluenesulfonamide], which inhibition at 15 µg/mL is on record?
Answer: 19%

Same assay, conditions: Table 3; compound at 50 μg/mL (starred values); read-out: % Inhibition Src (%), * = assayed at 50 μg/mL

Question: For `Cc1ccc(S(=O)(=O)Nc2ccc(OCCCCCO)cc2NS(=O)(=O)c2ccc(C)cc2)cc1` [Compound 12s, N-[4-(5-hydroxy-pentyloxy)-2-(4-toluenesulfonylamino)-phenyl]-4-toluenesulfonamide], which inhibition at 50 µg/mL is on record?
Answer: 9%

Same assay, conditions: Table 4, Formula III compounds; NI = no inhibition at 100 μg/mL

Question: `Cc1ccc(S(=O)(=O)Nc2cc(F)c(S(=O)(=O)Cc3ccccc3Cl)cc2NS(=O)(=O)c2ccc(C)cc2)cc1` [Compound 38d, N-[4-(2-chloro-phenylmethanesulfonyl)-5-fluoro-2-(4-toluenesulfonylamino)-phenyl]-4-toluenesulfonamide] was tested. Which IC50 did it give?
Answer: 13 µM

Same assay, conditions: Table 4; compound at 15 μg/mL; read-out: % Inhibition at 15 μg/mL Src (%)

Question: How did the inhibition at 15 µg/mL turn out when `COc1ccc(Oc2cc(NS(=O)(=O)c3ccc(C)cc3)c(NS(=O)(=O)c3ccc(C)cc3)cc2C(F)(F)F)cc1` [Compound 38b, N-[4-(4-methoxy-phenoxy)-2-(4-toluenesulfonylamino)-5-trifluoromethyl-phenyl]-4-toluenesulfonamide] was run?
Answer: 50%

Same assay, conditions: Table 6, Formula V compounds; compound at 15 μg/mL; read-out: % Inhibition at 15 μg/mL Src (%)

Question: Which inhibition at 15 µg/mL does the source give for `COc1ccc(Oc2ccc3c(c2)[nH]c(=O)n3S(=O)(=O)c2ccc(C)cc2)cc1` [Compound 72b, 5-(4-methoxy-phenoxy)-1-(4-toluenesulfonyl)-1,3-dihydro-benzoimidazol-2-one] here?
Answer: 19%

Same assay, conditions: compound at 15 μg/mL; read-out: % Inhibition at 15 μg/mL Src %

Question: For `COc1ccc(Oc2ccc(NCc3ccc(C)cc3)c(NS(=O)(=O)c3ccc(C)cc3)c2)cc1` [Compound 71jj, N-[5-(4-methoxy-phenoxy)-2-(4-methyl-benzylamino)-phenyl]-4-toluenesulfonamide], which inhibition at 15 µg/mL is on record?
Answer: 19%

Question: Which inhibition at 15 µg/mL does the source give for `COc1ccc(OCc2ccc(CNS(C)(=O)=O)c(NS(=O)(=O)c3ccc4cc(C)ccc4c3)c2)cc1` [Compound 71x, N-[2-(methanesulfonylamino-methyl)-5-(4-methoxy-phenoxymethyl)-phenyl]-6-methyl-naphthalene-2-sulfonamide] here?
Answer: 20%

Question: How did the inhibition at 15 µg/mL turn out when `COc1ccc(Oc2ccc(N)c(CNS(=O)(=O)c3ccc(C)cc3)c2)cc1` [Compound 71i, N-[2-amino-5-(4-methoxy-phenoxy)-benzyl]-4-toluenesulfonamide] was run?
Answer: 13%

Question: How did the inhibition at 15 µg/mL turn out when `COc1ccc(Oc2ccc(NCc3ccc4ccccc4n3)c(NS(=O)(=O)c3ccc(C)cc3)c2)cc1` [Compound 71g, N-{5-(4-methoxy-phenoxy)-2-[(quinolin-2-ylmethyl)-amino]-phenyl}-4-toluenesulfonamide] was run?
Answer: 10%

Question: For `COc1ccc(Oc2ccc(NC(=O)Cc3ccccc3)c(NS(=O)(=O)c3ccc(C)cc3)c2)cc1` [Compound 71s, N-[4-(4-methoxy-phenoxy)-2-(4-toluenesulfonylamino)-phenyl]-2-phenyl-acetamide], which inhibition at 15 µg/mL is on record?
Answer: 10%

Question: `Cc1ccc(S(=O)(=O)Nc2ccc(S(=O)(=O)Cc3ccccc3Cl)cc2NS(=O)(=O)c2ccc(C)cc2)cc1` [Compound 71nn, N-[4-(2-chloro-phenylmethanesulfonyl)-2-(4-toluenesulfonylamino)-phenyl]-4-toluenesulfonamide] was tested. Which inhibition at 15 µg/mL did it give?
Answer: 46%

Question: `COc1ccc(Oc2ccc(N)c(N(C)S(=O)(=O)c3ccc(C)cc3)c2)cc1` [Compound 71t, N-[2-amino-5-(4-methoxy-phenoxy)-phenyl]-N-methyl-4-toluenesulfonamide] was tested. Which inhibition at 15 µg/mL did it give?
Answer: 0%

Question: With `Cc1ccc(C(=O)Nc2cc(NCc3cccc4ccccc34)c([N+](=O)[O-])cc2NC(=O)c2ccc(C)cc2)cc1` [Compound 71bb, N-{4-[(naphthalen-1-ylmethyl)-amino]-5-nitro-2-(4-toluoylamino)-phenyl}-4-toluamide] as the compound, how does the inhibition at 15 µg/mL read?
Answer: 22%

Same assay, conditions: poly E4Y / 32P-ATP; Formula IV compounds

Question: With `COc1ccc(Oc2ccc(NS(=O)(=O)c3ccc(C)cc3)c(CNC(=O)c3ccc(C)cc3)c2)cc1` [Compound 71p, N-[5-(4-methoxy-phenoxy)-2-(4-toluenesulfonylamino)-benzyl]-4-toluamide] as the compound, how does the IC50 read?
Answer: 108 µM

Question: `COc1ccc(Oc2ccc(NS(=O)(=O)c3ccc(C)cc3)c(CN)c2)cc1` [Compound 71n, N-[2-aminomethyl-4-(4-methoxy-phenoxy)-phenyl]-4-toluenesulfonamide] was tested. Which IC50 did it give?
Answer: 1300 µM

Question: Which IC50 does the source give for `COc1ccc(Oc2ccc(NS(=O)(=O)c3ccc(C)cc3)c(N)c2)cc1` [Compound 71l, N-[2-amino-4-(4-methoxy-phenoxy)-phenyl]-4-toluenesulfonamide] here?
Answer: 62 µM

Question: `COc1ccc(Oc2ccc(NCc3ccc(NC(C)=O)cc3)c(NS(=O)(=O)c3ccc(C)cc3)c2)cc1` [Compound 71e, N-(4-{[4-(4-methoxy-phenoxy)-2-(4-toluenesulfonylamino)-phenylamino]-methyl}-phenyl)-acetamide] was tested. Which IC50 did it give?
Answer: 203 µM
